Experimental data: US11096985B2, “Antimicrobial peptides, their variants and uses” (priority 2015, dated 2021)
Where a SMILES comes first, the peptide text is derived from it. [ ]: non-standard residue; d: D form.

How the values were obtained:
[1] = system: clinical strains of Escherichia coli; assay: MIC, clinical strains of E. coli; type: cell-based; parameters: unit: μg/ml; conditions: microdilution, Muller Hinton broth-cation adjusted, 0.02% BSA, 0.2% acetic acid
Summary of the method: (§1)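 By broth microdilution, Chain peptides from 0.125 to 128 μg/ml were tested against clinical strains adjusted to 5.0×10^5 cfu/ml, with bacteria in MH broth and yeasts in Potato dextrose broth. After 20–24 h at 37 °C, the lowest peptide concentration without visible growth was scored as MIC.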

[2] = system: clinical strains of Klebsiella pneumoniae; assay: MIC, clinical strains of K. pneumoniae; type: cell-based; parameters: unit: μg/ml; conditions: microdilution, Muller Hinton broth-cation adjusted, 0.02% BSA, 0.2% acetic acid
Summary of the method: as §1

[3] = system: clinical strains of Pseudomonas aeruginosa; assay: MIC, clinical strains of P. aeruginosa; type: cell-based; parameters: unit: μg/ml; conditions: microdilution, Muller Hinton broth-cation adjusted, 0.02% BSA, 0.2% acetic acid
Summary of the method: as §1

[4] = system: clinical strains of Serratia marcescens; assay: MIC, clinical strains of Serratia marcescens; type: cell-based; parameters: unit: µg/mL; conditions: microdilution, Muller Hinton broth-cation adjusted, 0.02% BSA, 0.2% acetic acid
Summary of the method: as §1

[5] = system: clinical strains of Proteus mirabilis; assay: MIC, clinical strains of Proteus mirabilis; type: cell-based; parameters: unit: µg/mL; conditions: microdilution, Muller Hinton broth-cation adjusted, 0.02% BSA, 0.2% acetic acid
Summary of the method: as §1

[6] = system: clinical strains of Enterobacter cloacae; assay: MIC, clinical strains of Enterobacter cloacae; type: cell-based; parameters: unit: μg/ml; conditions: microdilution, Muller Hinton broth-cation adjusted, 0.02% BSA, 0.2% acetic acid
Summary of the method: as §1

[7] = system: clinical strains of Staphylococcus aureus; assay: MIC, clinical strains of S. aureus; type: cell-based; parameters: unit: μg/ml; conditions: microdilution, Muller Hinton broth-cation adjusted, 0.02% BSA, 0.2% acetic acid
Summary of the method: as §1

[8] = system: clinical strains of Streptococcus pneumoniae; assay: MIC, clinical strains of Streptococcus pneumoniae; type: cell-based; parameters: unit: µg/mL; conditions: microdilution, Muller Hinton broth-cation adjusted, 0.02% BSA, 0.2% acetic acid
Summary of the method: as §1

[9] = system: clinical strains of Candida albicans; assay: MIC, clinical yeast strains, Candida albicans; type: cell-based; parameters: unit: μg/ml
Summary of the method: as §1

[10] = system: clinical strains of C. glabrata; assay: MIC, clinical yeast strains, C. glabrata; type: cell-based, Candida glabrata; parameters: unit: μg/ml
Summary of the method: as §1

[11] = system: clinical strains of C. parapsilosis; assay: MIC, clinical yeast strains, C. parapsilosis; type: cell-based, Candida parapsilosis; parameters: unit: μg/ml
Summary of the method: as §1

[12] = system: clinical strains of C. quillermondiae; assay: MIC, clinical yeast strains, C. quillermondiae; type: cell-based; conditions: C. quillermondiae clinical yeast strain 1
Summary of the method: as §1

CC(C)C[C@@H](NC(=O)[C@H](N)CCCCN)C(=O)N[C@H](CCCCN)C(=O)N[C@H](Cc1c[nH]c2ccccc12)C(=O)N[C@H](Cc1ccccc1)C(=O)N[C@H](Cc1c[nH]c2ccccc12)C(=O)N[C@H](CC(C)C)C(=O)N[C@H](Cc1ccccc1)C(=O)N[C@H](CCCCN)C(=O)N[C@H](CCCCN)C(=O)N[C@H](CCCNC(=N)N)C(=O)O [Chain311D] (H-[dK][dL][dK][dW][dF][dW][dL][dF][dK][dK][dR]-OH)
Minimum inhibitory concentration ([1]; Escherichia coli clinical strain 1): 2 | Minimum inhibitory concentration ([1]; Escherichia coli clinical strain 2): 2 | Minimum inhibitory concentration ([1]; Escherichia coli clinical strain 3): 1 | Minimum inhibitory concentration ([1]; Escherichia coli clinical strain 4): 0.5 | Minimum inhibitory concentration ([1]; Escherichia coli clinical strain 5): 1 | Minimum inhibitory concentration ([2]; Klebsiella pneumoniae clinical strain 1): 8 | Minimum inhibitory concentration ([2]; Klebsiella pneumoniae clinical strain 2): 8 | Minimum inhibitory concentration ([2]; Klebsiella pneumoniae clinical strain 3): 4 | Minimum inhibitory concentration ([2]; Klebsiella pneumoniae clinical strain 4): 8 | Minimum inhibitory concentration ([2]; Klebsiella pneumoniae clinical strain 5): 4 | Minimum inhibitory concentration ([3]; Pseudomonas aeruginosa clinical strain 1): 16 | Minimum inhibitory concentration ([3]; Pseudomonas aeruginosa clinical strain 2): 8 | Minimum inhibitory concentration ([3]; Pseudomonas aeruginosa clinical strain 3): 16 | Minimum inhibitory concentration ([3]; Pseudomonas aeruginosa clinical strain 4): 8 | Minimum inhibitory concentration ([3]; Pseudomonas aeruginosa clinical strain 5): 4 | Minimum inhibitory concentration ([4]; Serratia marcescens clinical strain 1): >128 | Minimum inhibitory concentration ([4]; Serratia marcescens clinical strain 2): >128 | Minimum inhibitory concentration ([4]; Serratia marcescens clinical strain 3): >128 | Minimum inhibitory concentration ([4]; Serratia marcescens clinical strain 4): >128 | Minimum inhibitory concentration ([4]; Serratia marcescens clinical strain 5): >128 | Minimum inhibitory concentration ([5]; Proteus mirabilis clinical strain 1): >128 | Minimum inhibitory concentration ([5]; Proteus mirabilis clinical strain 2): 128 | Minimum inhibitory concentration ([5]; Proteus mirabilis clinical strain 3): 128 | Minimum inhibitory concentration ([5]; Proteus mirabilis clinical strain 4): >128 | Minimum inhibitory concentration ([5]; Proteus mirabilis clinical strain 5): >128 | Minimum inhibitory concentration ([6]; Enterobacter cloacae clinical strain 1): 4 | Minimum inhibitory concentration ([6]; Enterobacter cloacae clinical strain 2): 4 | Minimum inhibitory concentration ([6]; Enterobacter cloacae clinical strain 3): 4 | Minimum inhibitory concentration ([6]; Enterobacter cloacae clinical strain 4): 4 | Minimum inhibitory concentration ([6]; Enterobacter cloacae clinical strain 5): 2 | Minimum inhibitory concentration ([7]; Staphylococcus aureus clinical strain 1): 1 | Minimum inhibitory concentration ([7]; Staphylococcus aureus clinical strain 2): 1 | Minimum inhibitory concentration ([7]; Staphylococcus aureus clinical strain 3): 1 | Minimum inhibitory concentration ([7]; Staphylococcus aureus clinical strain 4): 1 | Minimum inhibitory concentration ([7]; Staphylococcus aureus clinical strain 5): 1 | Minimum inhibitory concentration ([8]; Streptococcus pneumoniae clinical strain 1): 16 | Minimum inhibitory concentration ([8]; Streptococcus pneumoniae clinical strain 2): 8 | Minimum inhibitory concentration ([8]; Streptococcus pneumoniae clinical strain 3): 16 | Minimum inhibitory concentration ([8]; Streptococcus pneumoniae clinical strain 4): 4 | Minimum inhibitory concentration ([8]; Streptococcus pneumoniae clinical strain 5): 8 | Minimum inhibitory concentration ([9]; Candida albicans clinical yeast strain 1): 8 | Minimum inhibitory concentration ([9]; Candida albicans clinical yeast strain 2): 8 | Minimum inhibitory concentration ([9]; Candida albicans clinical yeast strain 3): 8 | Minimum inhibitory concentration ([9]; Candida albicans clinical yeast strain 4): 16 | Minimum inhibitory concentration ([9]; Candida albicans clinical yeast strain 5): 16 | Minimum inhibitory concentration ([10]; C. glabrata clinical yeast strain 1): 16 | Minimum inhibitory concentration ([10]; C. glabrata clinical yeast strain 2): 16 | Minimum inhibitory concentration ([10]; C. glabrata clinical yeast strain 3): 8 | Minimum inhibitory concentration ([10]; C. glabrata clinical yeast strain 4): 64 | Minimum inhibitory concentration ([11]; C. parapsilosis clinical yeast strain 1): 16 | Minimum inhibitory concentration ([11]; C. parapsilosis clinical yeast strain 2): 8 | Minimum inhibitory concentration ([11]; C. parapsilosis clinical yeast strain 3): 8 | Minimum inhibitory concentration ([11]; C. parapsilosis clinical yeast strain 4): 8 | Minimum inhibitory concentration [12]: 4
